Results on 22 compounds are retold here after PubChem BioAssay (NCI).

Where “and” joins values, the source holds several entries; their conditions need not be identical. Identical values can stand only once.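 48-hour exposure; five concentrations; linearly interpolated endpoints. GI50 is the concentration that inhibits growth by half. TGI marks complete inhibition of growth.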 Bounds are passed on as bounds.

Test systems include T-47D breast; NCI/ADR-RES ovarian; DU-145 prostate; MDA-MB-231 breast; MCF7 breast.
Test in all cases: growth of human tumour cells (NCI), 48 h

As for `C=CC/C(=C\COP(=O)(OCc1ccc([N+](=O)[O-])o1)N(C)CCCCCl)CC/C=C(\C)CCC=C(C)C` (stereo unspecified), the GI50 was 20.6 µM in the test with T-47D breast, 11.9 µM in the test with NCI/ADR-RES ovarian, 11.6 µM in the test with DU-145 prostate and 12.7 µM with MDA-MB-231 breast. Moreover, the TGI in the test with T-47D breast worked out at 53.9 µM; in the test with NCI/ADR-RES ovarian, 24.1 µM; in the test on DU-145 prostate it was 23.8 µM; in the test on MDA-MB-231 breast, 34.1 µM.

Regarding `CCOC(=O)c1c(C)nc2c(c1N)CC(=O)N2CCc1ccccc1`, the GI50 in the test on T-47D breast is 0.962 µM; in the test with NCI/ADR-RES ovarian, 2.05 µM; in the test on DU-145 prostate, 0.881 µM; in the test on MCF7 breast it was 0.306 µM; with MDA-MB-231 breast, 0.896 µM. Besides, the TGI in the test with T-47D breast is 22.9 µM; with NCI/ADR-RES ovarian, 27.2 µM; with DU-145 prostate it was 16 µM; in the test with MCF7 breast, 17.1 µM; in the test with MDA-MB-231 breast it was 14 µM.

As to `Cc1ccc(C(SCC(N)C(=O)O)(c2ccccc2)c2ccccc2)cc1` (stereo unspecified), the GI50 in the test with T-47D breast was 0.123 µM; in the test with NCI/ADR-RES ovarian it was 1.03 µM; in the test on DU-145 prostate, 0.181 µM; in the test on MCF7 breast, 0.0324 µM; in the test with MDA-MB-231 breast, 0.0381 µM. Also, the TGI in the test on T-47D breast is more than 77.7 µM; in the test with NCI/ADR-RES ovarian, 6.03 µM; with DU-145 prostate, 0.466 µM; with MCF7 breast, more than 79.1 µM; in the test with MDA-MB-231 breast it was 0.571 µM.

Turning to `CC(/C=C/c1ccccc1)=N\NC(N)=S`, the TGI in the test on T-47D breast was 49.1 µM; with NCI/ADR-RES ovarian, 84 µM; with DU-145 prostate, more than 100 µM; with MCF7 breast, more than 100 µM; in the test on MDA-MB-231 breast, more than 100 µM.

Regarding `N=C(N)c1ccc(NCCOCCNc2ccc(C(=N)N)cc2)cc1`, the GI50 in the test on T-47D breast was 7.17 µM; in the test with NCI/ADR-RES ovarian, 78.5 µM; in the test on DU-145 prostate, 27.4 µM; in the test on MCF7 breast, 16 µM; in the test on MDA-MB-231 breast, more than 100 µM. In addition, the TGI is 75.6 µM in the test on T-47D breast; more than 100 µM with NCI/ADR-RES ovarian; more than 100 µM in the test with DU-145 prostate; more than 100 µM with MCF7 breast; more than 100 µM in the test with MDA-MB-231 breast.

Take `COc1cc(C2C3=C(COC3=O)Nc3c2ccc2c3CCCC2)cc2c1OCO2` (stereo unspecified): the GI50 in the test on NCI/ADR-RES ovarian was 0.0391 µM; with DU-145 prostate it was 0.0416 µM; in the test with MCF7 breast, 0.0352 µM; in the test on MDA-MB-231 breast, 0.0779 µM. The figures for the TGI in the test with NCI/ADR-RES ovarian, in the test with DU-145 prostate and with MCF7 breast were 19.1 µM, 0.505 µM and 8.74 µM, respectively.

Turning to `CCC(=O)Nc1ccccc1C#C/C=C\C#Cc1ccccc1C(F)(F)F`, the GI50 was 6.04 µM in the test with T-47D breast; 1.48 µM in the test on NCI/ADR-RES ovarian; 2.28 µM in the test with DU-145 prostate; 2.61 µM in the test with MCF7 breast; 3.13 µM with MDA-MB-231 breast. Moreover, the TGI in the test on T-47D breast was more than 38.9 µM; in the test with NCI/ADR-RES ovarian, 9.95 µM; in the test with DU-145 prostate, 22.3 µM; in the test on MCF7 breast it was more than 36.1 µM; in the test with MDA-MB-231 breast it was more than 29.3 µM.

`NCCOc1ccccc1/C=C1\c2ccccc2-c2ccc([N+](=O)[O-])cc21`: the GI50 was 1.66 µM in the test with T-47D breast; 1.77 µM with NCI/ADR-RES ovarian; 1.03 µM with DU-145 prostate; 0.805 µM in the test with MCF7 breast; 1.58 µM in the test with MDA-MB-231 breast. Besides, the TGI in the test on T-47D breast is 3.44 µM; with NCI/ADR-RES ovarian, 3.54 µM; in the test with DU-145 prostate it was 2.21 µM; in the test on MCF7 breast it was 2.25 µM; in the test with MDA-MB-231 breast, 2.99 µM.

`Cc1ccc(C2=Nc3c(N)ncnc3NC(c3ccc4c(c3)OCO4)C2)cc1` (stereo unspecified): the GI50 is 5.72 µM in the test with T-47D breast; 3.52 µM in the test with NCI/ADR-RES ovarian; 4.52 µM in the test with DU-145 prostate; 3.42 µM with MCF7 breast; 4.37 µM in the test with MDA-MB-231 breast. Further, the TGI with T-47D breast is more than 100 µM; in the test with NCI/ADR-RES ovarian, 22.9 µM; with DU-145 prostate, 14.7 µM; in the test with MCF7 breast, more than 100 µM; with MDA-MB-231 breast, 19.5 µM.

Turning to `CN(C)CC(C(=O)Cc1ccccc1)c1ccccc1` (stereo unspecified), the GI50 is 1.11 µM in the test with T-47D breast; 4.4 µM with NCI/ADR-RES ovarian; 1.73 µM in the test with DU-145 prostate; 0.369 µM in the test with MCF7 breast; 3.48 µM in the test on MDA-MB-231 breast. In addition, the TGI turned out to be 4.91 µM with T-47D breast; 23.9 µM with NCI/ADR-RES ovarian; 4.72 µM in the test on DU-145 prostate; 1.67 µM with MCF7 breast; 11 µM in the test with MDA-MB-231 breast.

Consider `COc1ccc2c(Cl)cc(NC(=O)Nc3c(C)cccc3C)nc2c1`, for which the GI50 with T-47D breast was 22.5 µM; in the test on NCI/ADR-RES ovarian, more than 100 µM; in the test on DU-145 prostate, 28.4 µM; in the test on MCF7 breast, 56 µM; in the test on MDA-MB-231 breast it was 13.3 µM. Besides, the TGI in the test on T-47D breast, with NCI/ADR-RES ovarian, in the test on DU-145 prostate, in the test with MCF7 breast and with MDA-MB-231 breast was more than 100 µM throughout.

For the compound `Cc1cc(C(=O)O)c(C)n1-c1cccc(C(=O)O)c1`, the GI50 in the test with T-47D breast, in the test on NCI/ADR-RES ovarian, with DU-145 prostate, in the test on MCF7 breast and in the test with MDA-MB-231 breast was more than 100 µM throughout. Further, the TGI in the test with T-47D breast, in the test with NCI/ADR-RES ovarian, in the test on DU-145 prostate, with MCF7 breast and with MDA-MB-231 breast was more than 100 µM throughout.

With `Cc1cc(C(=O)NC(CCC(=O)O)C(=O)O)sc1CCC1CNc2nc(N)[nH]c(=O)c2C1` (stereo unspecified), the TGI in the test on T-47D breast, in the test with NCI/ADR-RES ovarian, in the test with DU-145 prostate, in the test on MCF7 breast and in the test with MDA-MB-231 breast was more than 100 µM each time. In addition, the GI50 was 0.0499 µM and 0.0758 µM in the test on NCI/ADR-RES ovarian; < 0.0158 µM and 0.0407 µM in the test with DU-145 prostate; < 0.0114 µM and 0.0346 µM with MCF7 breast; 6.72 µM and 12.8 µM in the test on MDA-MB-231 breast.

For `C[n+]1c(-c2ccc(/C=N/NC(=O)c3ccc(C(=O)N/N=C/c4ccc(-c5cn6ccccc6[n+]5C)cc4)cc3)cc2)cn2ccccc21`, the GI50 was 372 µM in the test with T-47D breast; 553 µM in the test with NCI/ADR-RES ovarian; 206 µM with DU-145 prostate; 343 µM with MCF7 breast; 119 µM with MDA-MB-231 breast. Also, the TGI is 928 µM in the test with T-47D breast; more than 1000 µM in the test on NCI/ADR-RES ovarian; 698 µM in the test with DU-145 prostate; more than 1000 µM in the test with MCF7 breast; 242 µM in the test on MDA-MB-231 breast.

As for `CCCCC(=O)N/N=C/c1c(O)ccc2ccccc12`, the GI50 is 3.03 µM with T-47D breast; 1.68 µM with NCI/ADR-RES ovarian; 2.7 µM in the test with DU-145 prostate; 2.09 µM in the test with MCF7 breast; 3.51 µM in the test with MDA-MB-231 breast. Moreover, the TGI in the test with T-47D breast is more than 100 µM; in the test on NCI/ADR-RES ovarian it was more than 30.2 µM; in the test with DU-145 prostate, more than 100 µM; with MCF7 breast, 15.8 µM; with MDA-MB-231 breast, more than 94.8 µM.

On to `COC1C(OC(=O)/C=C/C=C/C=C/C=C\C(=O)O)CCC2(CO2)C1C1(C)OC1CC=C(C)C` (stereo unspecified), for which the GI50 in the test on T-47D breast, in the test with NCI/ADR-RES ovarian, with DU-145 prostate, in the test with MCF7 breast and in the test with MDA-MB-231 breast was more than 200 µM in each case. In addition, the TGI in the test with T-47D breast, with NCI/ADR-RES ovarian, in the test with DU-145 prostate, in the test on MCF7 breast and in the test with MDA-MB-231 breast was more than 200 µM throughout.

Take `Oc1cccc(/C=N/Nc2nnc(N/N=C/c3cccc(O)c3)c3ccccc23)c1`: the TGI was 61.8 µM in the test on T-47D breast; 60.1 µM with NCI/ADR-RES ovarian; 66 µM with DU-145 prostate; more than 100 µM in the test on MCF7 breast; 35.8 µM in the test on MDA-MB-231 breast.

Take `C=C(CC(=O)O)C(=O)O` (tested in a mixture with another compound): the GI50 in the test with T-47D breast, with NCI/ADR-RES ovarian, in the test with DU-145 prostate, with MCF7 breast and in the test with MDA-MB-231 breast was more than 50 µg/mL throughout. Moreover, the TGI in the test on T-47D breast, in the test on NCI/ADR-RES ovarian, in the test with DU-145 prostate, with MCF7 breast and with MDA-MB-231 breast was more than 50 µg/mL each time.

`Cn1c2ccccc2c2c3[nH][nH]c(=O)c3c3c4ccccc4[nH]c3c21`: the GI50 is 2.05 µM with T-47D breast; 4.02 µM in the test with NCI/ADR-RES ovarian; 2.45 µM in the test with DU-145 prostate; 1.63 µM in the test with MCF7 breast; 1.39 µM with MDA-MB-231 breast. Moreover, the TGI in the test with T-47D breast is 13.4 µM; with NCI/ADR-RES ovarian, 37.5 µM; in the test on DU-145 prostate it was 29.1 µM; in the test with MCF7 breast it was 10.4 µM; in the test with MDA-MB-231 breast, 46.1 µM.

Turning to `Cc1cc(N2CCCC2)nc(NCc2cc(Nc3ccnc4cc(Cl)ccc34)ccc2F)n1`, the GI50 with NCI/ADR-RES ovarian was 1.39 µM; in the test on DU-145 prostate, 1.3 µM; in the test with MCF7 breast, 0.216 µM. For the same compound, the TGI was determined as 2.99 µM with NCI/ADR-RES ovarian, 2.69 µM in the test on DU-145 prostate and 1.07 µM with MCF7 breast.

Turning to `C/C(=N\NC(=S)N1CC2CCC(CC2)C1)c1cccc(C)n1`, the TGI with T-47D breast is 20.6 µM; in the test with DU-145 prostate it was 7.1 µM; with MDA-MB-231 breast, 17.8 µM. Moreover, the figures for the GI50 in the test on NCI/ADR-RES ovarian and with DU-145 prostate were less than 0.0001 µM and 0.378 µM, respectively.

Consider `CCCCc1n(Cc2ccc3ccccc3c2)cc[n+]1Cc1ccc2ccccc2c1`, for which the GI50 with NCI/ADR-RES ovarian is 15.8 µM; with DU-145 prostate, 1.41 µM; with MDA-MB-231 breast, 1.31 µM. The TGI with NCI/ADR-RES ovarian was determined as 39.8 µM; with DU-145 prostate, 2.83 µM; in the test with MDA-MB-231 breast it was 2.77 µM.
